Among the data in US20260083750A1, “SMALL MOLECULE INHIBITORS OF KRAS PROTEINS” (MERCK SHARP & DOHME LLC, priority 2022, published 2026) are IC50 values, retold here.

In one experiment the target is T1, KRAS-G12V (Homo sapiens, UniProt P01116, G12V).
T1 construct: N-terminal biotin-acceptor peptide […]
Put plainly: SOS-catalyzed nucleotide exchange assay (Procedure A, TR-FRET). It counts as biochemical. The following applies: 60 min preincubation, SOS + GTP, read-out: KRAS G12V GNE IC50. An excerpt:
(§1) Procedure for SOS-Catalyzed Nucleotide Exchange Assay for KRAS-G12C/D/V, G13D, HRAS, and NRAS (Procedure A)
(§2) Recombinant KRAS-G12C protein used in this assay has an additional triple mutation (C51S/C80L/C118S), whereas KRAS-G12D/V, G13D, HRAS and NRAS are in context of their WT protein sequence background. Specifically, the SOS-catalyzed nucleotide exchange assay utilizes a preformed TR-FRET complex containing a specific biotinylated RAS protein (KRAS-G12C/V/D, G13D, HRAS, NRAS; described above) with Bodipy-GDP, and Terbium-streptavidin. Compounds are preincubated with this complex for 60 minutes. Subsequently, recombinant human SOS protein and unlabeled GTP are added to initiate the exchange reaction. Small molecule inhibitors stabilize the Bodipy-GDP complex whereas the untreated protein rapidly exchanges Bodipy-GDP for unlabeled GTP resulting in reduced TR-FRET signal.
(§3) To assemble the preformed TR-FRET complexes, each biotinylated RAS protein is diluted to 2 μM in an EDTA Buffer (20 mM HEPES pH 7.5, 50 mM sodium chloride, 10 mM EDTA, and 0.01% Tween) and incubated at room temperature for one hour. This mixture is then further diluted to 90 nM in an Assay Buffer (20 mM HEPES pH 7.5, 150 mM sodium chloride, 10 mM magnesium chloride, and 0.005% Tween) containing 15 nM of Terbium-Streptavidin (Invitrogen, catalog #PV3577) and 900 nM of Bodipy-GDP (Invitrogen, catalog #G22360) and incubated at room temperature for six hours. It should be noted that this preformed TR-FRET complex for each of the RAS protein were made ahead of time, aliquoted and stored at −80° C. until the day of the experiment.
(§4) Each test compound (10 mM stock in DMSO) is diluted in DMSO to make a final-10-point, 3-fold dilution and is acoustically dispensed into a 384-well assay plate (Corning, catalog #3820) using an Echo 550 (Labcyte). Each well of the assay plate receives 3 μL of a specific 3× RAS preformed TR-FRET complex and 3 μL of Assay Buffer and is incubated at room temperature for 60 minutes (preincubation time). Each well then receives 3 μL of 3× recombinant human SOS protein and GTP (Sigma, G8877) in Assay Buffer and is incubated at room temperature for 30 minutes (G13D), 60 minutes (G12C/D, H/NRAS) or 90 minutes for G12V. The final reaction in each well of […] consists of 3 mM GTP, specific Ras and SOS proteins in the following concentrations: KRAS-G12C/SOS=3 nM/40 nM, KRAS-G12D/SOS=1 nM/40 nM, KRAS-G12V/SOS=1.25 nM/160 nM, KRAS-G13D/SOS=1.25 nM/0 nM, HRAS & NRAS=1.25 nM/40 nM.
(§5) The time-resolved fluorescence resonance energy transfer (TR-FRET) signal is measured on an Envision (PerkinElmer) plate reader: Excitation filter=340 nm; emission1=495 nm; emission2=520 nm; dichroic mirror=D400/D505; delay time=[…]. The signal of each well is determined as the ratio of the emission at 520 nm to that at 495 nm. […] The apparent effect as a function of compound concentration is fit to a four-parameter logistic equation.
On the technique in general: In TR-FRET formats the signal depends on donor and acceptor labels being close together.

A further experiment deals with T2, KRAS-G12D (Homo sapiens, UniProt P01116, G12D).
T2 construct: N-terminal biotin-acceptor peptide […]
The experiment is described as above. The following applies: 60 min preincubation, SOS + GTP, read-out: KRAS G12D GNE IC50. It counts as biochemical.
Excerpt: as §1, §2, §3, §4, §5

Experiment [1] relates to PANC08.13 cells (homozygous KRAS-G12D activating mutation). Put plainly: Cellular phospho-ERK assay in G12D cell line. Format: cell-based. The settings on record: Homo sapiens, PANC-08-13, 2 hours compound incubation, ratio of p-ERK vs. total ERK, read-out: PANC 0813 pERK IC50. Here is the method: Procedure for Cellular Phospho-ERK Assay in G12D and G12V Cell Lines
PANC08.13 cells (ATCC® CRL-2551™), containing homozygous KRAS-G12D activating mutation, were cultured in growth medium made of RPMI1640-GlutaMAX™—I (ThermoFisher Scientific 61870) containing 15% heat inactivated fetal bovine serum (ThermoFisher Scientific 10091148)). SW620 cells (ATCC® […]), containing homozygous KRAS-G12V activating mutation, were cultured in growth medium that contains RPMI 1640-GlutaMAX™—I (ThermoFisher Scientific 61870) containing 10% heat inactivated fetal bovine serum (ThermoFisher Scientific 10091148).
Cells for the assay were harvested in growth medium after TrypLE (ThermoFisher scientific 12604021) digestion and were seeded in a 384-well collagen coated cell culture plate (Corning 356702) at a density of 10,000-15,000 cells/20 uL/well, and incubated at 37° C., 5% CO2 overnight. The compound (with 10 mM stock concentration) dose-response titrations were prepared [30 μM final ERK detection assay concentration and 1:3 dilutions, 10-point dose response] and appropriate amounts (270 nL) of test compounds were dispensed in a 384-well intermediate plate using an Echo 550 liquid handler. 30 uL/well of RPMI medium 1640-GlutaMAX™—I was added to the intermediate plate and the contents of the intermediate plate (10 uL/well) were then transferred to the 384-well collagen coated cell culture plate, which was incubated at 37° C., 5% CO2 for 2 hours. After removal of medium from the collagen coated cell culture plate, cells were lysed in lysis buffer from Alpha SureFire® Ultra™ Multiplex p-ERK and total ERK assay kit (PerkinElmer MPSU-PTERK) containing Halt™ Protease and Phosphatase inhibitor cocktail (ThermoFisher Scientific 78446) at room temperature with constant shaking at 300 rpm for 30 minutes. The cell lysates were then transferred to an OptiPlate-384 plate (PerkinElmer 6005620), and the phosphorylation of ERK (p-ERK) and total ERK levels were detected by Alpha SureFire® Ultra™ Multiplex p-EEK kit and total ERK assay kit (PerkinElmer MPSU-PTERK) following the manufacturer's protocol. Assay plates were read on a EnVision Multimode Plate Reader (PerkinElmer), and the ratio of p-ERK vs. total ERK in each well was used as the final readout. Dose response curves were analyzed using a 4-parameter logistic model to calculate IC50 values using Spotfire software.

SMILES strings stand for the structures.

T1 sequence (P01116 with tags, fused parts or gaps isoform P01116-2 G12V): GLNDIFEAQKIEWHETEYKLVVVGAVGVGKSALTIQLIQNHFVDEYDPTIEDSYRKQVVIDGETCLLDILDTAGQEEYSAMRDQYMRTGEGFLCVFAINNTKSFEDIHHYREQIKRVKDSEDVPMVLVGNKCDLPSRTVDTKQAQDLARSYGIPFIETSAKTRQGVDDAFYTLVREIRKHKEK
T2 sequence (P01116 with tags, fused parts or gaps isoform P01116-2 G12D): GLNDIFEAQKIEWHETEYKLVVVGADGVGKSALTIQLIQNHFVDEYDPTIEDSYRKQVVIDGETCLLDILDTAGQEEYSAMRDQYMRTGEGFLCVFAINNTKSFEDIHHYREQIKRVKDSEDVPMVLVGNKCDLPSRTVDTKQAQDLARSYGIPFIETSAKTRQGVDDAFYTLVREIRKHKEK

On to `C[C@H]1CCOCCN1c1nc(OC[C@@]23CCCN2C[C@H](F)C3)nc2c(F)c(-c3ccc(F)c4sc(N)c(C#N)c34)ccc12` [compound 49, 2-amino-7-fluoro-4-(8-fluoro-2-(((2R,7aS)-2-fluorotetrahydro-1H-pyrrolizin-7a(5H)-yl)methoxy)-4-((S)-5-methyl-1,4-oxazepan-4-yl)quinazolin-7-yl)benzo[b]thiophene-3-carbonitrile], for which the half-inhibitory concentration (IC50) (in general, the concentration needed to halve the response being measured) on KRAS-G12V stood at 160 nM; on KRAS-G12D, 477 nM.

Consider `N#Cc1c(N)sc2c(F)ccc(-c3c(C(F)(F)F)cc4c(N5C[C@H]6CC[C@H]6C5)nc(OC[C@@]56CCCN5C[C@H](F)C6)nc4c3F)c12` [compound 52, 4-(4-((1R,5S)-3-azabicyclo[3.2.0]heptan-3-yl)-8-fluoro-2-(((2R,7aS)-2-fluorotetrahydro-1H-pyrrolizin-7a(5H)-yl)methoxy)-6-(trifluoromethyl)quinazo-lin-7-yl)-2-amino-7-fluorobenzo[b]thiophene-3-carbonitrile], for which the IC50 stood at 43.1 nM on KRAS-G12V and 210 nM on KRAS-G12D.

With `N#Cc1c(N)sc2c(F)ccc(-c3c(Cl)cc4c(N5CCOCCC5C(F)(F)F)nc(OC[C@@]56CCCN5C[C@H](F)C6)nc4c3F)c12` (stereo partly drawn) [compound 15, 2-amino-4-(6-chloro-8-fluoro-2-(((2R,7aS)-2-fluorotetrahydro-1H-pyrrolizin-7a(5H)-yl)methoxy)-4-(5-(trifluoromethyl)-1,4-oxazepan-4-yl)quinazolin-7-yl)-7-fluorobenzo[b]thio-phene-3-carbonitrile], the IC50 turned out to be 464 nM in experiment [1], 20.1 nM on KRAS-G12V and 94 nM on KRAS-G12D.

Regarding `N#Cc1c(N)sc2c(F)ccc(-c3c(C(F)(F)F)cc4c(N5CCC6(C5)CC6(F)F)nc(OC[C@@]56CCCN5C[C@H](F)C6)nc4c3F)c12` (stereo partly drawn) [compound 53, 2-amino-4-(4-(1,1-difluoro-5-azaspiro[2.4]heptan-5-yl)-8-fluoro-2-(((2R,7aS)-2-fluorotetrahydro-1H-pyrrolizin-7a(5H)-yl)methoxy)-6-(trifluoromethyl)quinazo-lin-7-yl)-7-fluorobenzo[b]thiophene-3-carbonitrile], the IC50 at KRAS-G12V was 84.7 nM; at KRAS-G12D, 972 nM.

For the compound `C[C@H]1CCOCCN1c1nc(OC[C@@]23CCCN2C[C@H](F)C3)nc2cc(-c3ccc(F)c4sc(N)c(C#N)c34)c(C(F)(F)F)nc12` [compound 50, 2-amino-7-fluoro-4-(2-(((2R,7aS)-2-fluorotetrahydro-1H-pyrrolizin-7a(5H)-yl)methoxy)-4-((S)-5-methyl-1,4-oxazepan-4-yl)-6-(trifluoromethyl)pyrido[3,2-d]pyrimidin-7-yl)benzo[b]thiophene-3-carbonitrile], the IC50 on KRAS-G12V amounted to 7.6 nM; on KRAS-G12D, 30.5 nM.

Take `Cc1cc(N)nc(-c2c(Cl)cc3c(N4CCOCC(F)(F)C4)nc(OC[C@@]45CCCN4C[C@H](F)C5)nc3c2F)c1C(F)(F)F` [compound 43, 6-(6-chloro-4-(6,6-difluoro-1,4-oxazepan-4-yl)-8-fluoro-2-(((2R,7aS)-2-fluorotetrahydro-1H-pyrrolizin-7a(5H)-yl)methoxy)quinazolin-7-yl)-4-methyl-5-(trifluoromethyl)pyridin-2-amine]: the IC50 on KRAS-G12V came out at 91.8 nM; on KRAS-G12D, 927 nM.

Regarding `N#Cc1c(N)sc2c(F)ccc(-c3c(Cl)cc4c(N5C6COCC5C6)nc(OC[C@@]56CCCN5C[C@H](F)C6)nc4c3F)c12` [compound 47, 4-(4-(3-oxa-6-azabicyclo[3.1.1]heptan-6-yl)-6-chloro-8-fluoro-2-(((2R,7aS)-2-fluorotetrahydro-1H-pyrrolizin-7a(5H)-yl)methoxy)quinazolin-7-yl)-2-amino-7-fluorobenzo[b]thiophene-3-carbonitrile], the IC50 at KRAS-G12D was determined as 23.4 nM.

For the compound `N#Cc1c(N)sc2c(F)ccc(-c3cc4nc(OC[C@@]56CCCN5C[C@H](F)C6)nc(N5CCCOCC5)c4nc3C(F)(F)F)c12` [Ex. 46, 2-amino-7-fluoro-4-(2-(((2R,7aS)-2-fluorotetrahydro-1H-pyrrolizin-7a(5H)-yl)methoxy)-4-(1,4-oxazepan-4-yl)-6-(trifluoromethyl)pyrido[3,2-d]pyrimidin-7-yl)benzo[b]thiophene-3-carbonitrile], the IC50 is 8.9 nM at KRAS-G12V and 40.9 nM at KRAS-G12D.

As to `N#Cc1c(N)sc2c(F)ccc(-c3c(Cl)cc4c(N5CCOCC5)nc(OC[C@@]56CCCN5C[C@H](F)C6)nc4c3F)c12` [compound 48, 2-amino-4-(6-chloro-8-fluoro-2-(((2R,7aS)-2-fluorotetrahydro-1H-pyrrolizin-7a(5H)-yl)methoxy)-4-morpholinoquinazolin-7-yl)-7-fluorobenzo[b]thiophene-3-carbonitrile], the results for the IC50 on KRAS-G12V and at KRAS-G12D were 8.89 nM and 70.9 nM, respectively.

In the case of `N#Cc1c(N)sc2c(F)ccc(-c3c(C(F)(F)F)cc4c(N5CC6COC(C6)C5)nc(OC[C@@]56CCCN5C[C@H](F)C6)nc4c3F)c12` (stereo partly drawn) [compound 51, 4-(4-((1R,5S)-6-oxa-3-azabicyclo[3.2.1]octan-3-yl)-8-fluoro-2-(((2R,7aS)-2-fluorotetrahydro-1H-pyrrolizin-7a(5H)-yl)methoxy)-6-(trifluoromethyl)quinazo-lin-7-yl)-2-amino-7-fluorobenzo[b]thiophene-3-carbonitrile], the IC50 is 4.52 nM on KRAS-G12V and 23.7 nM at KRAS-G12D.

As to `Cc1cc(N)nc(-c2c(Cl)cc3c(N4CCCSCC4)nc(OC[C@@]45CCCN4C[C@H](F)C5)nc3c2F)c1C(F)(F)F` [compound 42, 6-(6-chloro-8-fluoro-2-(((2R,7aS)-2-fluorotetrahydro-1H-pyrrolizin-7a(5H)-yl)methoxy)-4-(1,4-thiazepan-4-yl)quinazolin-7-yl)-4-methyl-5-(trifluoromethyl)pyridin-2-amine], the IC50 at KRAS-G12V was determined as 59.1 nM; on KRAS-G12D, 273 nM.
